# Results reported in ChEMBL document CHEMBL1127957, “Synthesis and glutamate antagonist activity of 4-phosphonoalkylquinoline derivatives: A novel class of non-NMDA antagonist” (Bioorg Med Chem Lett, 1994).
# Key:
# [1] = target: Glutamate receptor ionotropic, NMDA 1 (Rattus norvegicus, UniProt P35439); assay: Binding affinity at glycine co-agonist site of rat NMDA receptor
# [2] = Tested for its ability to displace [3H]glutamate from NMDA receptor
# [3] = Displacement of [3H]CNQX from Ionotropic glutamate receptor kainate/Ionotropic glutamate receptor AMPA in rat cortical membranes; format: cell membranes, Membrane
# Rattus norvegicus [4] = species on record: Rattus norvegicus; assay: Compound was tested for its ability to inhibit kainic acid (KA)-induced inward currents in Xenopus oocytes injected with poly {A+) mRNA from rats; format: functional
# Rattus norvegicus [5] = species on record: Rattus norvegicus; assay: Compound was tested for the ability to inhibit kainic acid (KA)-induced inward currents in Xenopus oocytes injected with poly {A+) mRNA from rats; format: functional
Structure (SMILES),IC50 [1] [µM],IC50 [2] [µM],IC50 [3] [µM],Ki (Rattus norvegicus [4]) [µM],Ki (Rattus norvegicus [5]) [µM]
NC(Cc1cc(I)ccc1CCP(=O)(O)O)C(=O)O (stereo unspecified),81,> 300,7.3,3.5,
O=[N+]([O-])c1c(Cl)ccc2nc(O)cc(CP(=O)(O)O)c12,> 1000,> 1000,> 1000,,> 300
O=P(O)(O)Cc1cc(O)nc2cc(Cl)ccc12,10,30,59,,32
O=P(O)(O)c1cc(O)nc2cc(Cl)ccc12,> 1000,> 300,,,> 1000
O=P(O)(O)CCc1cc(O)nc2cc(Cl)ccc12,,600,91,,
O=P(O)(O)Cc1cc(O)nc2cc(Cl)cc(Cl)c12,29,> 100,26,,18.2
O=C(O)c1cc(CCP(=O)(O)O)c2ccc(Cl)cc2n1,> 1000,> 1000,384,,450
O=[N+]([O-])c1c(Cl)ccc2c(CP(=O)(O)O)cc(O)nc12,> 1000,> 1000,300,,
O=C(O)c1cc(CP(=O)(O)O)c2ccc(Cl)cc2n1,69,,61,,132
O=P(O)(O)Cc1cc(O)nc2cc(Cl)c(Cl)cc12,79,> 100,15,,9.6
O=P(O)(O)Cc1cc(O)nc2cc(I)ccc12,37,35,35,,15.6
N#Cc1cc2c(cc1[N+](=O)[O-])=NC(=O)C(=O)N=2,7.9,,0.13,,
